Source: US7880007B2, “Bicyclic substituted phenyl piperidine modulators of muscarinic receptors” (Vertex Pharmaceuticals Incorporated, priority 2004, dated 2011)

Assays:
Type in all cases: cell-based
[1] = biological target: T1, M2 muscarinic receptor (Homo sapiens, UniProt P08172); assay: Functional mobilization of intracellular calcium (FLIPR), M2-CHO cells; conditions: for M2 Activity: M2-CHO cells, calcium mobilization (FLIPR)
T1 construct: expressed in transfected cells; host or cells: CHO (M2-CHO)
T1 sequence (P08172 1-466): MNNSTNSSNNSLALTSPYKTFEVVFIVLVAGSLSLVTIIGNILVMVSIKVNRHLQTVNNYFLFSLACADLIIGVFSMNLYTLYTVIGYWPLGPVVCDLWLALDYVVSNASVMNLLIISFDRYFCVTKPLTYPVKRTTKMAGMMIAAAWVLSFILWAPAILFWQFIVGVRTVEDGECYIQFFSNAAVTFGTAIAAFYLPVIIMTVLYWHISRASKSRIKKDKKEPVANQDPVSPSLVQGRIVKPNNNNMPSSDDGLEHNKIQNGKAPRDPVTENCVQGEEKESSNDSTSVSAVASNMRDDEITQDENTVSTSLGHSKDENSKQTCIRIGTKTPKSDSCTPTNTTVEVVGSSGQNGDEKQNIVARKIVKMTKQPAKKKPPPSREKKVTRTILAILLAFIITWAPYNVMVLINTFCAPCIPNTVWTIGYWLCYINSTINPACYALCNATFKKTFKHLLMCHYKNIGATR
Procedure, shortened: (§1)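 FLIPR fluorescence (ex 488, em 540 nm) recorded 60 sec after compound addition to dye-loaded CHO cells. Agonist mode: compound alone. Antagonist mode: 15 min compound pre-incubation, then carbachol at EC80, or co-application. Efficacy expressed as % of maximal carbachol response.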

[2] = biological target: T2, M4 muscarinic receptor (Homo sapiens, UniProt P08173); assay: Functional mobilization of intracellular calcium (FLIPR), M4-CHO cells; conditions: for M4 Activity: M4-CHO cells, calcium mobilization (FLIPR)
T2 construct: expressed in transfected cells; host or cells: CHO (M4-CHO)
T2 sequence (P08173 1-479): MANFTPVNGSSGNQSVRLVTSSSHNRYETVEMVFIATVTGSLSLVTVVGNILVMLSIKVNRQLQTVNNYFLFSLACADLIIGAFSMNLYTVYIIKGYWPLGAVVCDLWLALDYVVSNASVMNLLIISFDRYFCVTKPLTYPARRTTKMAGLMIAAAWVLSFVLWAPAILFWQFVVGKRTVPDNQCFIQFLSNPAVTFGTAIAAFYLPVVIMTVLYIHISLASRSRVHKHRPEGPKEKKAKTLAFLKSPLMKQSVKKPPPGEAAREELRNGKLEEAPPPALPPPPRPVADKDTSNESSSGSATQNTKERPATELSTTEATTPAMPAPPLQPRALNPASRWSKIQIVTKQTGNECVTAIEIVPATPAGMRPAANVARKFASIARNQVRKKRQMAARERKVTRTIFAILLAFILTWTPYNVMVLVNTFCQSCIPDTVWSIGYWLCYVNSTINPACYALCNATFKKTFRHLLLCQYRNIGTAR
Procedure, shortened: as §1

[3] = biological target: T3, M1 muscarinic receptor (Homo sapiens, UniProt P11229); assay: Functional mobilization of intracellular calcium (FLIPR), M1-CHO cells; conditions: for M1 Activity: M1-CHO cells, calcium mobilization (FLIPR)
T3 construct: expressed in transfected cells; host or cells: CHO (M1-CHO)
T3 sequence (P11229 1-460): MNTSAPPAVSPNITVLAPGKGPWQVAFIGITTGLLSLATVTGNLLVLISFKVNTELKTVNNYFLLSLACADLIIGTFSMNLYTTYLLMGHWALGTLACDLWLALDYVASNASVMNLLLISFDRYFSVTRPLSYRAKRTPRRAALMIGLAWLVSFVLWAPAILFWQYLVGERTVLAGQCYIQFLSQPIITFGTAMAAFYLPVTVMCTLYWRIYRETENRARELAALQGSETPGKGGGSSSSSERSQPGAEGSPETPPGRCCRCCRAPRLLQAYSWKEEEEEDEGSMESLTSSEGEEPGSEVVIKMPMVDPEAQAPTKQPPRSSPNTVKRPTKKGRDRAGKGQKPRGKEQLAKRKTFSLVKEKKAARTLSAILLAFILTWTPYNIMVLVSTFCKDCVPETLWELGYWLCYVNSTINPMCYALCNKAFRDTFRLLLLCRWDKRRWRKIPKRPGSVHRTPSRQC
Procedure, shortened: as §1

[4] = biological target: T4, M3 muscarinic receptor (Homo sapiens, UniProt P20309); assay: Functional mobilization of intracellular calcium (FLIPR), M3-CHO cells; conditions: for M3 Activity: M3-CHO cells, calcium mobilization (FLIPR)
T4 construct: expressed in transfected cells; host or cells: CHO (M3-CHO)
T4 sequence (P20309 whole entry): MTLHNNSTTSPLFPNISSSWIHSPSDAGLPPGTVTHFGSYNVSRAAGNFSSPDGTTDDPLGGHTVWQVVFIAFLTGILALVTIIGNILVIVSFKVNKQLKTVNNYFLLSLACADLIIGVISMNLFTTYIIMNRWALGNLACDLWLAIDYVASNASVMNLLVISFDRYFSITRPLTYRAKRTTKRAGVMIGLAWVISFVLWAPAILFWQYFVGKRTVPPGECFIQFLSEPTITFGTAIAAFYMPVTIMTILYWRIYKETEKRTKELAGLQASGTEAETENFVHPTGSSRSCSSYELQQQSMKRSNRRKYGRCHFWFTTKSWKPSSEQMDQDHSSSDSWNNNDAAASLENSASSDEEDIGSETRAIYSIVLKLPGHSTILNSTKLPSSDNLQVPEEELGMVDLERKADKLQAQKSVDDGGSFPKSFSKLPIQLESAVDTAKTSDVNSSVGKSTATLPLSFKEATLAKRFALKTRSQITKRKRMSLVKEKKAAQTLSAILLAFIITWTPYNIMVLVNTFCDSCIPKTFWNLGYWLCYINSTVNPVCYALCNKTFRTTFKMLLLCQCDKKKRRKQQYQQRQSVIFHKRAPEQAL
Procedure, shortened: as §1

[5] = 100% efficacy = maximum response obtained with the Carbachol control
[6] = 100% efficacy is the maximum response obtained with the Carbachol control

Compound	Emax [1, 5]	M2 Activity [1]	Emax [2, 5]	M4 Activity [2]	Emax [3, 5]	M1 Activity [3]	Emax [4, 5]	M3 Activity [4]	Emax [1, 6]	Emax [2, 6]	Emax [3, 6]	Emax [4, 6]
COc1ccccc1C1CCN(CC2CCOC2)CC1 (stereo not drawn) [Compound 369]	< 25%	+ (activity was measured to be greater than 5.0 μM)	25 to 100%	++ (activity was measured to be from 1.0 μM to 5.0 μM)	25 to 100%	+ (activity was measured to be greater than 5.0 μM)	< 25%	+ (activity was measured to be greater than 5.0 μM)	–	–	–	–
COc1ccccc1C1CCN(C2CCC(C3CCC(=O)CC3)CC2)CC1 (stereo not drawn) [Compound 370]	< 25%	+ (activity was measured to be greater than 5.0 μM)	25 to 100%	++ (activity was measured to be from 1.0 μM to 5.0 μM)	< 25%	+ (activity was measured to be greater than 5.0 μM)	< 25%	+ (activity was measured to be greater than 5.0 μM)	–	–	–	–
COc1ccc(F)cc1C1CCN(C2CC3CCC2C3)CC1 (stereo not drawn) [Compound 371]	25 to 100%	++ (activity was measured to be from 1.0 μM to 5.0 μM)	25 to 100%	+++ (activity was measured to be less than 1.0 μM)	25 to 100%	++ (activity was measured to be from 1.0 μM to 5.0 μM)	< 25%	+ (activity was measured to be greater than 5.0 μM)	–	–	–	–
COc1ccc(Cl)cc1C1CCN(C2(C)CCOCC2)CC1 [Compound 372]	–	++ (activity was measured to be from 1.0 μM to 5.0 μM)	–	+++ (activity was measured to be less than 1.0 μM)	–	++ (activity was measured to be from 1.0 μM to 5.0 μM)	–	+ (activity was measured to be greater than 5.0 μM)	25 to 100%	25 to 100%	25 to 100%	< 25%
COc1ccccc1C1(C#N)CCN(CC2CCOCC2)CC1 [Compound 373]	–	+ (activity was measured to be greater than 5.0 μM)	–	+ (activity was measured to be greater than 5.0 μM)	–	+ (activity was measured to be greater than 5.0 μM)	–	+ (activity was measured to be greater than 5.0 μM)	< 25%	25 to 100%	< 25%	< 25%
COc1ccccc1C1CCN(C2CCCC(O)CCC2)CC1 (stereo not drawn) [Compound 374]	–	+ (activity was measured to be greater than 5.0 μM)	–	++ (activity was measured to be from 1.0 μM to 5.0 μM)	–	+ (activity was measured to be greater than 5.0 μM)	–	+ (activity was measured to be greater than 5.0 μM)	< 25%	25 to 100%	< 25%	< 25%
OC1(c2cc(Cl)cc(Cl)c2)CCN(C2C[C@H]3CC[C@H]2C3)CC1 (stereo partly drawn) [Compound 375]	–	+ (activity was measured to be greater than 5.0 μM)	–	+ (activity was measured to be greater than 5.0 μM)	–	+ (activity was measured to be greater than 5.0 μM)	–	+ (activity was measured to be greater than 5.0 μM)	< 25%	25 to 100%	< 25%	< 25%
COc1ccc(Cl)cc1C1CCN(C2CCSCC2)CC1 [Compound 376]	–	+ (activity was measured to be greater than 5.0 μM)	–	+++ (activity was measured to be less than 1.0 μM)	–	++ (activity was measured to be from 1.0 μM to 5.0 μM)	–	+ (activity was measured to be greater than 5.0 μM)	< 25%	25 to 100%	25 to 100%	< 25%
COc1ccc(C#CC2(O)CCCCC2)cc1C1CCN([C@@H]2C[C@H]3CC[C@H]2C3)CC1 [Compound 377]	–	+ (activity was measured to be greater than 5.0 μM)	–	+++ (activity was measured to be less than 1.0 μM)	–	+ (activity was measured to be greater than 5.0 μM)	–	+ (activity was measured to be greater than 5.0 μM)	< 25%	25 to 100%	< 25%	< 25%
Fc1ccccc1C1CCN(C2CCOCC2)CC1 [Compound 378]	–	+ (activity was measured to be greater than 5.0 μM)	–	+++ (activity was measured to be less than 1.0 μM)	–	+ (activity was measured to be greater than 5.0 μM)	–	+ (activity was measured to be greater than 5.0 μM)	< 25%	25 to 100%	25 to 100%	< 25%
Cc1ccc(F)cc1C1CCN([C@@H]2C[C@H]3CC[C@H]2C3)CC1 [Compound 381]	–	++ (activity was measured to be from 1.0 μM to 5.0 μM)	–	+++ (activity was measured to be less than 1.0 μM)	–	++ (activity was measured to be from 1.0 μM to 5.0 μM)	–	+ (activity was measured to be greater than 5.0 μM)	25 to 100%	25 to 100%	25 to 100%	< 25%
COc1ccc(-c2ccc3c(c2)OCO3)cc1C1CCN(C2CCCCC2)CC1 [Compound 382]	–	+ (activity was measured to be greater than 5.0 μM)	–	+ (activity was measured to be greater than 5.0 μM)	–	+ (activity was measured to be greater than 5.0 μM)	–	+ (activity was measured to be greater than 5.0 μM)	< 25%	25 to 100%	< 25%	< 25%
COc1ccc(-c2ccc(C#N)cc2)cc1C1CCN([C@@H]2C[C@H]3CC[C@H]2C3)CC1 [Compound 383]	–	+ (activity was measured to be greater than 5.0 μM)	–	++ (activity was measured to be from 1.0 μM to 5.0 μM)	–	+ (activity was measured to be greater than 5.0 μM)	–	+ (activity was measured to be greater than 5.0 μM)	< 25%	25 to 100%	25 to 100%	< 25%
CCC(C)Oc1ccccc1C1CCN([C@H]2C[C@H]3CC[C@H]2C3)CC1 (stereo partly drawn) [Compound 384]	–	+ (activity was measured to be greater than 5.0 μM)	–	++ (activity was measured to be from 1.0 μM to 5.0 μM)	–	+ (activity was measured to be greater than 5.0 μM)	–	+ (activity was measured to be greater than 5.0 μM)	< 25%	25 to 100%	25 to 100%	< 25%
Cc1ccc(-c2ccccc2C2CCN([C@H]3C[C@H]4CC[C@H]3C4)CC2)c(C)c1 [Compound 386]	–	+ (activity was measured to be greater than 5.0 μM)	–	+ (activity was measured to be greater than 5.0 μM)	–	+ (activity was measured to be greater than 5.0 μM)	–	+ (activity was measured to be greater than 5.0 μM)	< 25%	25 to 100%	< 25%	< 25%
